Assay results as given in EP0037516A1, “N-omega substituted derivatives of 1-Desamino-vasopressin analogs” (VEGA LABORATORIES, INC., priority 1980, dated 1981).
Marks after values point to notes of the source that are not given here. *1 amine or outer side, *2 acyl side, *3 side chain or, on linkers, in order; H or OH if unused. Where a SMILES comes first, the peptide text is derived from it. Bridges are numbered along the chain shown (N, C = ends). [ ]: non-standard residue; d: D form. Thz = O=C(O)[C@@H]1CSCN1; X1 = O=C(CCC[*:2])[*:1]; Mpa = O=C(O)CCS

Legend:
[1] = Pressor assay in rats, calibrated against arginine-vasopressin; format: in vivo, male Sprague-Dawley rats; conditions: for Peak Potency (pressor activity): 200g male Sprague-Dawley rats, calibrated against arginine-vasopressin; for pressor activity (in words): comment on Table 3
[2] = Antidiuretic assay in rats, calibrated against arginine-vasopressin; format: in vivo, male Sprague-Dawley rats; conditions: for Peak Potency (antidiuretic activity): 200g male Sprague-Dawley rats, calibrated against arginine-vasopressin; for Mean Peak Potency (Product) F: antidiuretic activity, peak potency multiplied by F; for Ratio of Half-Life of Compound to Parent Half-Life (F): antidiuretic response; for antidiuretic activity (in words): comment on Table 4
Factor VIII [3] = assay: Factor VIII release, clotting assay in male canine citrated plasma; format: in vivo; conditions: for Factor VIII releasing activity (in words): comment on Table 5; for Factor VIII Releasing Activity: male canine citrated plasma, calibrated against desmopressin
Experimental: Pressor and antidiuretic assays of the compounds of Examples I-IV were carried out in 200g body weight, male Sprague-Dawley rats using the techniques reported by Schaechtelin et al in "Enhancement of the Activity of Angiotensin II by Certain Cations," Molec. Pharmacol., 10, 57-67 (1974) and Cort et al in "Role of the Disulfide Bridge and the C-Terminal Tripeptide in the Anti-diuretic Action of Vasopressin in Man and the Rat", Kidney Internat. , 8, 292-302 (1975), with calibration of responses against a 3-point curve using highly purified arginine-vasopressin of known activity. Similar tests were performed on known vasopressin analogs for purposes of comparison. In addition, the release of Factor VIII by the compounds of Examples I-IV was tested in male canine citrated plasna using the clotting assay described by Prowse et al, in Brit. J. Haematol., 41, 437 (1979), and the results were calibrated against the Factor VIII releasing activity of desmopressin. In all cases, the half-lives of the responses were compared to the standard at equi-peak-potent levels.

Factor VIII [4] = assay: Factor VIII releasing activity in pentothal-anesthetized dogs, standard clotting assay; format: in vivo; conditions: for Factor VIII Releasing Activity: dogs
Experimental: The 9-Ala-NH2 analogs of Examples XII and XIII were evaluated for ability to stimulate production of Factor VIII by administration to pentothal-anesthestized dogs. These analogs, as well as desmopressin used as a control, were administered i.v. into the external jugular vein at a dose of 10 meg/kg body weight. Factor VIII analysis was performed by standard clotting assay (using normal dog plasma as 100% clotting and severely hemophilic dog plasma as 0% for the standard curve) just prior to injection, and at periodic intervals for up to 4 hours after injection.

Row | Molecule | Peak Potency (pressor activity) [1] [IU/mg] | pressor activity (in words) [1] | Peak Potency (antidiuretic activity) [2] [IU/mg] | Mean Peak Potency (Product) F [2] | Ratio of Half-Life of Compound to Parent Half-Life (F) ([2]; as compared to 1-desamino-[8-Lys]-vasopressin (footnote *)) | antidiuretic activity (in words) [2] | Factor VIII releasing activity (in words) (Factor VIII [3]) | Factor VIII Releasing Activity (Factor VIII [3]) [%] | Mean Peak Potency (Product) F ([1]; pressor activity, peak potency multiplied by F) | Ratio of Half-Life of Compound to Parent Half-Life (F) ([1]; pressor response, as compared to 1-desamino-[8-Lys]-vasopressin (footnote ***)) | Ratio of Half-Life of Compound to Parent Half-Life (F) ([2]; comparator not given) | Factor VIII Releasing Activity (Factor VIII [4]; 15 min. after i.v. 10 meg/kg) [%] | Factor VIII Releasing Activity (Factor VIII [4]; 60 min. after i.v. 10 meg/kg) [%] | Factor VIII Releasing Activity (Factor VIII [4]; 120 min. after i.v. 10 meg/kg) [%] | Factor VIII Releasing Activity (Factor VIII [4]; 240 min. after i.v. 10 meg/kg) [%] | Factor VIII Releasing Activity (Factor VIII [4]; Pre-Injection, normal dog plasma = 100% clotting) [%] | Factor VIII releasing activity (in words) (Factor VIII [4]; comment on Table 6, 4 hours after injection)
1 | CC[C@H](C)[C@@H]1NC(=O)[C@H](Cc2ccc(O)cc2)NC(=O)CCSSC[C@@H](C(=O)N2CCC[C@H]2C(=O)N[C@H](CCCCNC(=O)CN)C(=O)NCC(N)=O)NC(=O)[C@H](CC(N)=O)NC(=O)[C@H](CCC(N)=O)NC1=O [Example III, 1-Desamino-[8-D-N^ε-Lys(Gly)]-Vasotocin] ([Mpa]YIQNCP[dK](Gly)G-NH2; disulfide 1-6) | 0.1 | substantially devoid of pressor activity | 290 | 1508 | 5.2* | considerable antidiuretic activity | significant activity in releasing Factor VIII | 165 | – | – | – | – | – | – | – | – | –
2 | CC(C)C[C@H](N)C(=O)NCCCC[C@H](NC(=O)[C@@H]1CSCN1C(=O)[C@@H]1CSCCCC(=O)N[C@@H](Cc2ccc(O)cc2)C(=O)N[C@@H](Cc2ccccc2)C(=O)N[C@@H](CCC(N)=O)C(=O)N[C@@H](CC(N)=O)C(=O)N1)C(=O)NCC(N)=O [Example IV, 1-Desamino-1-monocarba-[7-thioPro, 8-NE-Lys(Leu)]-Vasopressin] (YFQNC[Thz]K(Leu)G-NH2; linker N-5 via X1) | 350 | prolonged pressor activity of higher potency than that of tGLVP | 450 | 3015 | – | considerable antidiuretic activity | significant activity in releasing Factor VIII | 285 | 3675 | 10.5*** | 6.7 | – | – | – | – | – | –
3 | Desmopressin [reference compound] | – | – | – | – | – | – | – | 250 | – | – | – | 125 | 185 | 125 | 105 | 98 | substantially decreased to zero at 4 hours
